According to PubChem BioAssay AID179 (DTP/NCI, 2004):
The source made the active and inactive calls.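 The calls were made as follows: active = compounds giving half or more protection of infected cells from virus-caused growth loss, again on retest; inactive = the rest.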 *1 amine or outer side, *2 acyl side, *3 side chain or, on linkers, in order; H or OH if unused. Where a SMILES comes first, the peptide text is derived from it. [ ]: non-standard residue; d: D form. ξ: configuration not given here. X15 = O=C([C@H]1CCC[C@H]1N[*:1])[*:2]; ξW = NC(Cc1c[nH]c2ccccc12)C(=O)O; ξF = NC(Cc1ccccc1)C(=O)O; ξK = NCCCCC(N)C(=O)O; ξT = CC(O)C(N)C(=O)O

Tested on: CEM cells HIV-1 protection, formazan growth assay
Test: NCI AIDS Antiviral Assay
Settings: for IC50: measured here: growth of uninfected CEM cells
Summary of the method: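 Protection of CEM cells against HIV-1 was scored from cell growth (soluble formazan) across five concentrations, with parallel uninfected cells. Lack of protection may reflect toxicity.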

SMILES | EC50 [µM] | IC50 [µM] | outcome
COC(=O)Cc1ccc(COC(=O)c2cc(C(=CCC[C@H]3CC[C@@]4(C)[C@@H](CC[C@@H]5[C@@H]4CC[C@]4(C)[C@@H]([C@H](C)CCCC(C)C)CC[C@@H]54)C3)c3cc(Cl)c(OCc4ccc(CC(=O)OC)cc4)c(C(=O)OCc4ccc(CC(=O)OC)cc4)c3)cc(Cl)c2OCc2ccc(CC(=O)OC)cc2)cc1 | > 200 | > 200 | –
COc1cc(OC)c(C2=NOC(n3c4ccccc4c4ccccc43)C2)c(OC)c1 (centres undefined) | – | – | inactive
Cn1c(=O)c2c3oc(=O)cc(O)c3c(=O)n3c4ccccc4n(c1=O)c23 | > 2.14 | > 2.14 | –
CC1CCC2(CCN(CCCN(C)C)CC2)C1 (centres undefined) | – | – | inactive
CC1=NN(C(=O)Cc2ccccc2)C(=O)/C1=C\c1ccco1 | > 64.6 | > 64.6 | –
C=CCCON(C(=O)OC(C)(C)C)C(C)(C)C | > 200 | > 200 | –
Nc1ccc(C(=O)N2CCC[C@H]2CO)c(N)c1 | > 200 | > 200 | –
CCCCCCCCCCNC1CC(OC2CC(O)(C(O)CO)Cc3c(O)c4c(c(O)c32)C(=O)c2c(OC)cccc2C4=O)OC(C)C1O (centres undefined) | – | – | inactive
O=C1C(CN(Cc2ccccc2)Cc2ccccc2)CCCC1CN(Cc1ccccc1)Cc1ccccc1 (centres undefined) | > 26.3 | > 26.3 | inactive
COC1(c2ccc(Cl)cc2)SC=C(C)n2c1noc2=O (centres undefined) | > 200 | > 200 | –
NCCSc1nc2ccccc2c(=O)n1-c1ccccc1 | > 200 | 30.2 | –
Cc1c(C2(c3cc(C(C)C)c(O)c(CN(CC(=O)O)CC(=O)O)c3C)OS(=O)(=O)c3ccccc32)cc(C(C)C)c(O)c1CN(CC(=O)O)CC(=O)O | > 100 | > 100 | –
CCCCCCCC(=O)NCC(O)CNC(=O)CCCCCCC | – | – | inactive
O=C1C(S)=[N+](O)c2ccccc2[N+]1=O | > 200 | > 200 | –
O=C1C=CC(=O)c2nc3c(nc21)[nH]c1ccccc13 | > 26.3 | 13.2 | –
OC(CCNC12CC3CC(CC(C3)C1)C2)c1ccccc1 (centres undefined) | – | – | inactive
Cc1ccnc2c1c(=O)c1ccccc1n2C | > 151 | 41.7 | –
COc1ccc(/C=N/n2c(C)nc3c(sc(=S)n3-c3ccccc3)c2=O)cc1 | > 12.6 | > 12.6 | –
CCOC(=O)CN=C1Nc2ccccc2C(=O)N2CSCC12 (centres undefined) | > 200 | 158 | –
COC[C@@H](N=CN1CCc2cc(OC)ccc2C1)C(C)C | > 871 | > 871 | –
CC(=O)N1C(=O)C(=O)c2ccccc21 | > 200 | > 200 | –
COc1cc2c(cc1O)C1C(O2)c2c(OC)cc3c(c2OC1(C)C)CCC(C)(C)O3 (centres undefined) | > 200 | 32.4 | –

SMILES | EC50 [µM] | IC50 [µM] | outcome
O=C(c1ccc(Cl)cc1Cl)N(/N=C/C=C/c1ccccc1)c1nnc(-c2ccccc2)c(-c2ccccc2)n1 | > 13.2 | > 13.2 | –
CCOP(=O)(/N=C1/C2CCC(C2)C1C)OCC (centres undefined) | > 234 | > 234 | –
COc1ccc(C(=O)Nc2ccc(S(=O)(=O)NCC(=O)O)cc2)cc1 | – | – | inactive
Cn1c(=O)n2n(c1=O)C1C=CC2C2C=C(c3ccccc3)C21 (centres undefined) | – | – | inactive
O=S(=O)(Sc1ccccc1)c1ccccc1 | > 81.3 | 13.8 | –
C=C1C2CC3CCC2C(OC(=O)c2ccccc2C(=O)O)C13 (centres undefined) | > 200 | > 200 | –
Cc1ccc(/C=C/C(=O)c2cc(CN(C)C)c(O)c(CN(C)C)c2)cc1 | > 200 | 20.4 | –
NC(=O)c1cc2cc(O)c(O)cc2cn1 | > 209 | 12.6 | –
CN(C)CCCOCCn1c2c(c3ccccc31)CCCC2 | > 200 | 32.4 | –
Cc1cccc(C)c1NC(=O)/C(CC(=O)CC(c1ccccc1)c1c(O)c2ccccc2oc1=O)=N/O (centres undefined) | > 263 | 204 | –
Cc1ccc(N2COc3ccc4ccccc4c3C2)cc1 | > 200 | 26.3 | –
CCSc1cccc(C(=O)O)c1 | > 513 | > 513 | –
Cc1c(C2(c3cc(C(C)C)c(O)c(Br)c3C)OS(=O)(=O)c3ccccc32)cc(C(C)C)c(O)c1Br | > 288 | 97.7 | –
COC(=O)CCCC(=O)C1=Nc2ccccc2CN(c2ccc(Cl)cc2)N1 | > 200 | 126 | –
Cc1ccc(OC(=O)N2C/C(=C\c3ccccc3)C(=O)/C(=C/c3ccccc3)C2)cc1 | – | – | inactive
Clc1ccnc2c1ccc1c(Cl)ccnc12 | > 75.9 | 13.8 | –
N#C/C(=C\c1ccccc1F)C(=O)c1ccccc1 | > 75.9 | > 75.9 | –
CCc1cccc(C)c1NC(=O)NS(=O)(=O)c1ccc(C)cc1 | > 759 | > 759 | –
Cc1ccc(S(=O)(=O)NC(=O)Nc2nc(Cl)cc(Cl)n2)cc1 | > 100 | 87.1 | –
Nc1ccccc1-c1nc2ccncc2[nH]1 | > 851 | 302 | –
CC[C@H](C)[C@H](NC(=O)N(CCC#N)CCN(CCN(C(=O)N[C@@H](Cc1ccccc1)C(=O)OC)c1ccccc1)C(=O)N[C@H](C(=O)OC)C(C)C)C(=O)OC | – | – | inactive
O=C1CSC(c2ccc(Cl)cc2)N1N1C(=O)CSC1c1ccc(Cl)cc1 (centres undefined) | > 151 | > 151 | –

SMILES | EC50 [µM] | IC50 [µM] | outcome
O=S(=O)(O)c1cc(S(=O)(=O)O)c2c(N=Nc3ccc(N=Nc4ccccc4)cc3)c(O)ccc2c1 | > 100 | > 100 | –
O=C(CC/C(CC(=O)c1ccc(Cl)cc1)=N\O)Nc1cccc(Cl)c1 | > 347 | 257 | –
COc1cccc(Nc2nc(N)nc(N)c2N=O)c1 | > 200 | 11.2 | –
CCN(CC)C1=Nc2ccccc2-n2ccnc2C1 | – | – | inactive
COC(=O)[C@@H]1[C@H]2C[C@@H]3c4[nH]c5ccccc5c4CCN3C[C@@H]2CC[C@@H]1O | – | – | inactive
Cc1c(C(=O)C/C(=N/NC(=O)C[n+]2ccccc2)C(=O)Nc2ccccc2)[n+](=O)c2ccccc2n1O | > 17.8 | > 17.8 | –
CN1CCC/C1=C1/C(=O)N(c2ccccc2)N=C1c1ccc[nH]1 | 191 | > 200 | –
CC(C)N1CN(C(C(=O)N[C@@H]2C(=O)N3C2SC(C)(C)C3C(=O)O)c2ccc(O)cc2)CSC1=S (some centres undefined) | > 479 | 79.4 | –
Nc1ccc2nc(Nc3ccc(Cl)c(Cl)c3)cnc2c1 | > 23.4 | > 23.4 | –
COc1cc(C2c3cc4c(cc3C(NCC(O)CO)C3COC(=O)[C@H]23)OCO4)cc(OC)c1OC (some centres undefined) | – | – | inactive
Cc1ccc(N(C)S(=O)(=O)c2ccc([N+](=O)[O-])cc2)cc1 | > 200 | 178 | –
CCCCCC(=O)OCCOCCOCCOCCOCCOCc1ccccc1 | – | – | inactive
CCCCC(N)CSSCC(N)CCCC (centres undefined) | > 741 | 21.4 | –
N#Cc1cccc(N(C(=O)c2ccccc2)c2ccccc2)n1 | > 200 | 112 | –
N#C/C(=C\NC(=S)Nc1cc(Cl)ccc1Cl)c1nc2ccccc2s1 | > 100 | > 100 | –
CCOc1ccc(NC(=O)/C(=N\NC(C)(C)C)C2C(=O)Nc3ccccc3S2=O)cc1 (centres undefined) | > 42.7 | > 42.7 | –
CC1C(c2ccc3c(c2)OCO3)c2cc3c(cc2OC1N1CCCCC1)OCO3 (centres undefined) | > 200 | 33.9 | –
Cc1cc(=O)[nH]c(NN2C(Cl)C(=O)C2c2ccc([N+](=O)[O-])cc2)n1 (centres undefined) | > 53.7 | 8.51 | –
CC(C)n1nnnc1-c1ccccc1 | > 200 | > 200 | –
Cc1cc(C)c(-c2noc(-c3ccccc3)c2C2=NCCN2)c(C)c1 | – | – | inactive
COC(=O)C1C(O)C(C)C(O)C(C)C=C(C)C2=C3C(=C(C)C(=O)c4c(O)c(c(C)c(OC(C)=O)c43)NC(=O)C(C)=C/C=C\C(C)C(O)C(C)C1O)OCO2 (centres undefined) | > 77.6 | – | –
CC(=O)NS(=O)(=O)c1ccc(NC(=O)c2ccccc2SSc2ccccc2[N+](=O)[O-])cc1 | 8.91 | 30.9 | –

SMILES | EC50 [µM] | IC50 [µM] | outcome
CC(=O)O[C@@H]1CC[C@]2(C)C3CC[C@]4(C)C(C(C)CCc5nc6ccccc6[nH]5)CCC4C3[C@H](OC(C)=O)C[C@@H]2C1 (some centres undefined) | > 50.1 | 12.9 | –
CCc1c(Cc2ccccc2)n(COCCO)c(=O)[nH]c1=O | 9.55 | > 200 | –
OCCC(N1CCOCC1)C(O)(c1ccccc1)c1ccccc1 (centres undefined) | > 200 | > 200 | –
Clc1ccc(-c2cc(=[N+]3CC[N+](=c4cc(-c5ccc(Cl)cc5)ss4)CC3)ss2)cc1 | 6.31 | 129 | –
Cc1cn(C2OC(CO)CC2F)c(=O)[nH]c1=O (centres undefined) | > 646 | > 646 | –
COC(=O)C1=CC2OC1(C)C1(CC1)C2=O (centres undefined) | – | – | inactive
Cc1nc2ccc(S(=O)(=O)NS(=O)(=O)c3ccc(-c4ccccc4)cc3)cc2c(=O)n1NS(=O)(=O)c1ccc(-c2ccccc2)cc1 | > 200 | 170 | –
CCCC(=O)NC(NC1CCCCC1)(C(=O)OCC)C(F)(F)F (centres undefined) | 191 | > 200 | –
CC(c1ccccc1)n1c2ccccc2c2c(N)ncnc21 (centres undefined) | > 200 | 17.8 | –
O=C(CN1CCCCC1)c1ccc(CCc2ccc(C(=O)CN3CCCCC3)cc2)cc1 | > 200 | 95.5 | –
NC1=Nc2ccccc2Sc2nnc(-c3ccc(Cl)cc3)n21 | > 200 | 115 | –
Cc1cccc(N=NC2Sc3nc4ccccc4n3C2=O)c1 (centres undefined) | > 200 | > 200 | –
COc1ccc(CC#C/C=C/C(=O)NCC(C)C)cc1 | > 95.5 | 14.1 | –
CCOC(=O)CCNC(=O)c1cc(C)cc2c1Oc1c(cc(C)cc1C(=O)NCCC(=O)OCC)S2 | > 200 | 29.5 | –
CC(O)C1NC(=O)C(CCCCN)NC(=O)C(Cc2c[nH]c3ccccc23)NC(=O)C(Cc2ccccc2)NC(=O)[C@H]2CCC[C@H]2NC(=O)C(Cc2ccccc2)NC1=O (some centres undefined) (cyclo([X15][ξF][ξW][ξK][ξT][ξF])) | > 200 | > 200 | –
COc1ccc(-c2ccc(CC(=O)O)cc2)cc1OC | > 36.3 | > 36.3 | –
O=C(OC1Cc2c(O)cc(O)cc2OC1c1ccc(O)c(O)c1)c1cc(O)c(O)c(O)c1 (centres undefined) | > 56.2 | 49 | –
CC(C)CCCC(C)[C@H]1CCC2[C@@H]3CCC4Nc5[nH]ncc5C[C@]4(C)C3CC[C@@]21C (some centres undefined) | – | – | inactive
O=S1c2ccccc2-c2ccccc21 | > 447 | > 447 | –
